The values below come from patent publication US20160271258A1, “Dual Peptide-Mediated Targeted Delivery System” (MUSC FOUNDATION FOR RESEARCH DEVELOPMENT, priority 2015, published 2016).

Entries after “also recorded” stand apart in the source; their conditions may differ. Where no end group is shown, it is not given here. [ ]: non-standard residue; d: D form.

In assay [1] the test system is CAL 27 (high EGFR) and SCC-15 (low EGFR) oral cancer cells. The assay can be described thus: Fluorescence microscopy of DY547-siCIP2A uptake in co-culture of high- and low-EGFR oral cancer cells. The format is cell-based, human. The following applies: co-culture CAL 27 and SCC-15, 4 hours, 100 nM D-siCIP2A. The method, then:
Fluorescence microscopy analysis was performed after co-culture of CAL 27 (high EGFR) and SCC-15 (low EGFR) oral cancer cells incubated for 4 hours with 100 nM of DY547-conjugated siRNA targeting CIP2A (D-siCIP2A; red) in complex with GE11R9 peptide at 100:1 and 60:1 (GE11R9:siRNA) molar ratios. SCC-15 cells were stained for vimentin (green) and nuclei (blue) were counterstained with DAPI.
Fluorescence microscopy analysis of the co-culture of CAL 27 (high EGFR) and SCC-15 (low EGFR) oral cancer cells incubated for 4 hours with 100 nM of DY547-conjugated siRNA targeting CIP2A (D-siCIP2A; red) in complex with GE11R9 and 599 peptides at various molar ratios (FIGS. 3A & 3B). SCC-15 cells were stained for vimentin (green) and nuclei (blue) were counterstained with DAPI

The subject of the next assay is CIP2A. The assay can be described thus: Western blot analysis of CIP2A protein expression levels in CAL 27 OSCC cells. Type of assay: cell-based, human. Particulars: CAL 27 cells, 48 hours post-treatment, 100 nM siCIP2A vs siNT. As to the method:
Western blot analysis of CIP2A protein expression levels in CAL 27 OSCC cells was performed 48 hours post-treatment with GE11R9 peptide complexed to either 100 nM of siNT or siCIP2A at a 60:1 or 100:1 peptide-to-siRNA molar ratio compared to 599 peptide at a 50:1 molar ratio. β-Actin protein levels were monitored to ensure equal loading of samples.
FIG. 4 is a Western blot analysis of CIP2A protein expression levels in CAL 27 OSCC cells performed 48 hours post-treatment with dual peptide complexed to either 100 nM of siNT or siCIP2A at various GE11R9:599:siRNA molar ratios. β-Actin protein levels were monitored to ensure equal loading of samples.

For “GE11R9: EGFR-targeting peptide: GE11 sequence modified with a nona(D-arginine) stretch (R9) and a C-terminal Lysine (YHWYGYTPQNVIGGGG[dR][dR][dR][dR][dR][dR][dR][dR][dR]K)”, the “targeting / specific uptake of siRNA into high-EGFR versus low-EGFR cells” value in assay [1] is “deliver siRNAs specifically to EGFR-overexpressing oral cancer cells; also recorded: specifically targets”. For the same substance, the “delivery of bioactive siRNA (siCIP2A functionality, CIP2A protein expression)” value in the assay with CIP2A is on record as “not capable of mediating the delivery of bioactive siRNAs; also recorded: does not deliver bioactive siRNAs; also recorded: not able to mediate the delivery of bioactive siRNAs”.
